# Experimental data from patent US20230390287A1, “MODULATORS OF PD-L1/PD-1 INTERACTION AND USES THEREOF” (Ramot at Tel-Aviv University Ltd., priority 2021, published 2023).
# “Also recorded” adds a separate entry of the source.
# Assays:
# [1] = system: patient-derived tumor cells and autologous PBMC (CD8+ T cells); test: Co-culture of patient-derived PBMC and autologous tumor cells; assay type: cell-based, human; conditions: 72 hours of co-culture; 7 patients
# Description: Tumor—Lymphocyte Co-Culture:
# One day before co-culture, PBMC were re-suspended in RPMI-1640 supplemented with 150 U/ml IL-2 (Peprotech) and cultured overnight at 37° C. Prior to co-culture, tumor cells were stimulated overnight with 200 ng/ml human recombinant IFN-γ (Peprotech). The next day, tumor cells were scraped to single cells and re-suspended in RPMI. PBMC were seeded at a density of […] and stimulated with single cell-dissociated tumor cells at a 2:1 Effector:Target ratio. Co-cultures were performed in the presence of 150 U/ml IL-2 (Peprotech), 5 μg/ml of anti-CD28 (BioxCell) and αPD-L1 blocking antibody or small-molecule inhibitor for 72 hours. The cells were then stained with fluorochrome-labeled antibodies and analyzed using an LSR Fortessa (BD Biosciences) and FlowJo software. […]
# The PBMC and tumor cells were co-cultured and treated with anti-CD28 (blue) and PD-L1 inhibitors (small-molecule inhibitor Compound 69 (yellow) and anti-PD-L1 (red)) for 72 hours. The PD-1/PD-L1 inhibition and T-cell activation were assessed using flow cytometry, and the obtained data is shown in FIGS. 8B-E. The anti-PD-L1 (αPD-L1) was added as the relevant control for PD-L1 inhibition.
# [2] = system: MC38 expressing human PD-L1 (MC38-hPD-L1); test: MC38-hPD-L1 tumor model in humanized PD-1 mice; assay type: in vivo
# Description: Male C57BL/6N-Pdcd1tm1^(huPDCD1-ICP11)Geno humanized for PD-1 (6 weeks old) were purchased from genOway and housed in an animal facility.
# Male C57BL/6N humanized PD-1 mice were implanted with 1×10^6 MC38 cells expressing humanized PD-L1 (MC38-hPD-L1) subcutaneously in the right flank. Twelve days later, when tumor volumes reached approx. 60 mm^3 (40-110 mm^3) as measured by digital caliper, animals were randomized into the three treatment groups (n=6 per group). Compound 69 was administered via intraperitoneal (i.p.) injection at 10 mg/kg for 10 daily doses between study days 12 and 22. Similarly, vehicle control (5% (v/v) DMSO, 30% (v/v) polyethylene glycol (PEG) 300, 5% (v/v) Tween® 80, and double distilled (dd) H2O) was administered. The αPD-L1 antibody Atezolizumab was administered via i.p. injection at 10 mg/kg thrice weekly between study days 12 and 22. The tumor size and body weight were measured every 3 days. The tumor volume was determined by X^2Y0.5 (X, small diameter; Y, large diameter).
# At day 30, the mice were euthanized, and MC38 tumors and spleens were collected. Tumor and spleen single-cell suspensions were obtained by mechanical disruption of the tissues. […] The obtained single-cell suspensions were then stained with fluorochrome-labelled antibodies and analyzed using a Cytek Aurora (Cytek) and FlowJo software (TreeStar). […]
compound,measurement,setting,value
CCCCCN(CCCCC)C(C)C(=O)c1cc(C)c2ccc3cc(C(C)C)ccc3c2c1.Cl (stereo not shown) [Compound 69],CD107a upregulation in CD8+ T cells,[1],induced
same,IFN-γ secretion in CD8+ T cells,[1],induced
same,tumor volume reduction relative to vehicle control,"[2]; 10 mg/kg i.p., 10 daily doses",93.6%
same,cytotoxic CD8+ tumor-infiltrating lymphocytes,"[2]; tumors isolated at day 30, flow cytometry",significant increase; also recorded: significantly outperformed the monoclonal antibody
